Measurements published in US20230085307A1, “PYRIDAZINONE COMPOUND AND HERBICIDE” (NISSAN CHEMICAL CORPORATION, priority 2019, published 2023).

Columns and labels:
[1] = system: redroot pigweed; test: Test Example 4: herbicidal effect by soil treatment (Table 19, symbol N); type: in vivo, redroot pigweed (Amaranthus retroflexus); settings: amount of applied herbicide 320 g/ha
Outline: (§1)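 Soil-surface application: an emulsion agent diluted with water to the predetermined dose is sprayed uniformly over seeds lying under roughly 1.5 cm of sterilized diluvial soil. Boxes stay in a greenhouse at 25° C. to 30° C. Three weeks later, each species is graded on previously defined criteria.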

[2] = system: windgrass; test: Test Example 4: herbicidal effect by soil treatment (Table 19, symbol L); type: in vivo, windgrass (Apera spica-venti); settings: amount of applied herbicide 320 g/ha
Outline: as §1

[3] = system: windgrass; test: Test Example 5: herbicidal effect by foliage application, plastic box (Table 20, symbol L); type: in vivo, windgrass (Apera spica-venti); settings: 320 g/ha; for L: windgrass, herbicidal effect grade: foliage application, three weeks after application
Outline: (§2)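 Sow seeds spot-wise in sterilized diluvial soil; cover with ~1.5 cm soil. Grow 14 days in greenhouse, 25° C. to 30° C. Spray foliage with emulsion diluted to predetermined amount. Rate effect after 3 weeks.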

[4] = system: persian speedwell; test: Test Example 5: herbicidal effect by foliage application, plastic box (Table 20, symbol R); type: in vivo, Persian speedwell (Veronica persica); settings: 320 g/ha; for R: persian speedwell, herbicidal effect grade: foliage application, three weeks after application
Outline: as §2

[5] = system: oval-leafed pondweed; test: Test Example 1: herbicidal activity, application before weed generation under submerged conditions (Table 16, symbol C); type: in vivo, oval-leafed pondweed (Monochoria vaginalis); settings: amount of applied herbicide 320 g/ha
Outline: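 Submerged Wagner pots (alluvial soil, 4 cm water) sown with weed seeds and planted with 2.5-leaf rice seedlings; emulsifiable concentrate diluted in water applied to water surface on sowing day. Held in greenhouse at 25-30 °C; injury scored 0-5 by herbicidal rate after three weeks.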

[6] = system: rice flat sedge; test: Test Example 3: herbicidal effect by foliage application, Wagner pot (Table 18, symbol E); type: in vivo, rice flat sedge (Cyperus iria); settings: for herbicidal effect on rice flat sedge (E): 320 g/ha
Outline: (§3)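 Plants were sown in alluvial soil held under 0.1–0.5 cm standing water and grown 14 days in a greenhouse at 25–30 °C. An emulsifiable formulation, water-diluted to the set dose, was then sprayed onto the foliage, and effects were scored three weeks later using previously defined criteria.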

[7] = system: oval-leafed pondweed; test: Test Example 2: herbicidal activity, application during weed generation under submerged conditions (Table 17, symbol C); type: in vivo, oval-leafed pondweed (Monochoria vaginalis); settings: AAH 320 g/ha; application during weed generation, submerged conditions
Outline: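 Mixed weed seedlings in alluvial soil under a 4 cm water layer, greenhouse-grown at 25–30° C. Compound given as a diluted emulsion into the floodwater at the 1–2 leaf stage; response graded after three weeks.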

[8] = system: lambsquarters; test: Test Example 4: herbicidal effect by soil treatment (Table 19, symbol O); type: in vivo, lambsquarters (Chenopodium album); settings: amount of applied herbicide 320 g/ha
Outline: as §1

[9] = system: velvetleaf; test: Test Example 4: herbicidal effect by soil treatment (Table 19, symbol M); type: in vivo, velvetleaf (Abutilon theophrasti); settings: amount of applied herbicide 320 g/ha
Outline: as §1

[10] = system: lambsquarters; test: Test Example 5: herbicidal effect by foliage application, plastic box (Table 20, symbol O); type: in vivo, lambsquarters (Chenopodium album); settings: 320 g/ha; for O: lambsquarters, herbicidal effect grade: foliage application, three weeks after application
Outline: as §2

[11] = system: barnyard grass; test: Test Example 5: herbicidal effect by foliage application, plastic box (Table 20, symbol H); type: in vivo, barnyard grass (Echinochloa crus-galli); settings: 320 g/ha; for H: barnyard grass, herbicidal effect grade: foliage application, three weeks after application
Outline: as §2

[12] = system: green foxtail; test: Test Example 5: herbicidal effect by foliage application, plastic box (Table 20, symbol G); type: in vivo, green foxtail (Setaria viridis); settings: 320 g/ha; for G: green foxtail, herbicidal effect grade: foliage application, three weeks after application
Outline: as §2

[13] = system: Chinese sprangletop; test: Test Example 3: herbicidal effect by foliage application, Wagner pot (Table 18, symbol D); type: in vivo, chinese sprangletop (Leptochloa chinensis); settings: for herbicidal effect on Chinese sprangletop (D): 320 g/ha
Outline: as §3

[14] = system: southern crabgrass; test: Test Example 4: herbicidal effect by soil treatment (Table 19, symbol F); type: in vivo, southern crabgrass (Digitaria ciliaris); settings: amount of applied herbicide 320 g/ha
Outline: as §1

[15] = system: chickweed; test: Test Example 5: herbicidal effect by foliage application, plastic box (Table 20, symbol P); type: in vivo, common chickweed (Stellaria media); settings: 320 g/ha; for P: chickweed, herbicidal effect grade: foliage application, three weeks after application
Outline: as §2

[16] = system: southern crabgrass; test: Test Example 5: herbicidal effect by foliage application, plastic box (Table 20, symbol F); type: in vivo, southern crabgrass (Digitaria ciliaris); settings: 320 g/ha; for F: southern crabgrass, herbicidal effect grade: foliage application, three weeks after application
Outline: as §2

[17] = foliage application after 14-day growth, evaluated three weeks after application
[18] = amount of applied herbicide 320 g/ha

| Structure (SMILES) | Herbicidal effect, C: oval-leafed pondweed [5] | herbicidal effect on rice flat sedge (E) [6] | herbicidal effect rating, C: oval-leafed pondweed [7] | herbicidal effect on Chinese sprangletop (D) [13] | L: windgrass, herbicidal effect grade [3] | R: persian speedwell, herbicidal effect grade [4] | O: lambsquarters, herbicidal effect grade [10] | H: barnyard grass, herbicidal effect grade [11] | G: green foxtail, herbicidal effect grade [12] | P: chickweed, herbicidal effect grade [15] | F: southern crabgrass, herbicidal effect grade [16] | N: redroot pigweed, herbicidal effect grade [1] | L: windgrass, herbicidal effect grade [2] | O: lambsquarters, herbicidal effect grade [8] | M: velvetleaf, herbicidal effect grade [9] | F: southern crabgrass, herbicidal effect grade [14] | other results |
| --- | --- | --- | --- | --- | --- | --- | --- | --- | --- | --- | --- | --- | --- | --- | --- | --- | --- |
| CCCC(=O)Oc1c(C)nn(C)c(=O)c1-c1c(-c2ccccc2OCC)sc2c(Cl)cccc12 [4-026] | 4 (Herbicidal rate of 70% or more and less than 90%) | 5 (Herbicidal rate of 90% or more (almost completely withered)) | 2 (Herbicidal rate of 20% or more and less than 40%) | 5 (Herbicidal rate of 90% or more (almost completely withered)) |  |  |  |  |  |  |  |  |  |  |  |  | Herbicidal effect by soil treatment, N: redroot pigweed [1]: 2 (Herbicidal rate of 20% or more and less than 40%); Herbicidal effect by soil treatment, L: windgrass [2]: 0 (Herbicidal rate of 5% or less (almost no effect)); herbicidal effect on L: windgrass (evaluation grade 0-5) [3, 17]: 5 (Herbicidal rate of 90% or more (almost completely withered)); herbicidal effect on R: persian speedwell (evaluation grade 0-5) [4, 17]: 4 (Herbicidal rate of 70% or more and less than 90%); Herbicidal effect by soil treatment, O: lambsquarters [8]: 0 (Herbicidal rate of 5% or less (almost no effect)); Herbicidal effect by soil treatment, M: velvetleaf [9]: 0 (Herbicidal rate of 5% or less (almost no effect)); herbicidal effect on O: lambsquarters (evaluation grade 0-5) [10, 17]: 3 (Herbicidal rate of 40% or more and less than 70%); herbicidal effect on H: barnyard grass (evaluation grade 0-5) [11, 17]: 5 (Herbicidal rate of 90% or more (almost completely withered)); herbicidal effect on G: green foxtail (evaluation grade 0-5) [12, 17]: 5 (Herbicidal rate of 90% or more (almost completely withered)); Herbicidal effect by soil treatment, F: southern crabgrass [14]: 3 (Herbicidal rate of 40% or more and less than 70%); herbicidal effect on P: chickweed (evaluation grade 0-5) [15, 17]: 5 (Herbicidal rate of 90% or more (almost completely withered)); herbicidal effect on F: southern crabgrass (evaluation grade 0-5) [16, 17]: 3 (Herbicidal rate of 40% or more and less than 70%) |
| CCOc1ccccc1-c1sc2ccc(F)cc2c1-c1c(O)c(CC)nn(C)c1=O [2-416] | 2 (Herbicidal rate of 20% or more and less than 40%) |  | 2 (Herbicidal rate of 20% or more and less than 40%) |  | 0 (Herbicidal rate of 5% or less (almost no effect)) | 5 (Herbicidal rate of 90% or more (almost completely withered)) | 2 (Herbicidal rate of 20% or more and less than 40%) | 3 (Herbicidal rate of 40% or more and less than 70%) | 2 (Herbicidal rate of 20% or more and less than 40%) | 5 (Herbicidal rate of 90% or more (almost completely withered)) | 1 (Herbicidal rate of 5% or more and less than 20%) |  |  |  |  |  | herbicidal effect, N: redroot pigweed [1]: 0 (Herbicidal rate of 5% or less (almost no effect)); herbicidal effect, L: windgrass [2]: 0 (Herbicidal rate of 5% or less (almost no effect)); herbicidal effect on E: rice flat sedge [6, 18]: 4 (Herbicidal rate of 70% or more and less than 90%); herbicidal effect, O: lambsquarters [8]: 0 (Herbicidal rate of 5% or less (almost no effect)); herbicidal effect, M: velvetleaf [9]: 0 (Herbicidal rate of 5% or less (almost no effect)); herbicidal effect on D: Chinese sprangletop [13, 18]: 3 (Herbicidal rate of 40% or more and less than 70%); herbicidal effect, F: southern crabgrass [14]: 0 (Herbicidal rate of 5% or less (almost no effect)) |
| COc1ccccc1-c1sc2cc(OCC3CC3)ccc2c1-c1c(O)c(C)nn(C)c1=O [3-129] | 5 (Herbicidal rate of 90% or more (almost completely withered)) | 5 (Herbicidal rate of 90% or more (almost completely withered)) | 3 (Herbicidal rate of 40% or more and less than 70%) | 4 (Herbicidal rate of 70% or more and less than 90%) | 5 (Herbicidal rate of 90% or more (almost completely withered)) | 5 (Herbicidal rate of 90% or more (almost completely withered)) | 4 (Herbicidal rate of 70% or more and less than 90%) | 4 (Herbicidal rate of 70% or more and less than 90%) | 5 (Herbicidal rate of 90% or more (almost completely withered)) | 5 (Herbicidal rate of 90% or more (almost completely withered)) | 5 (Herbicidal rate of 90% or more (almost completely withered)) | 5 (Herbicidal rate of 90% or more (almost completely withered)) | 5 (Herbicidal rate of 90% or more (almost completely withered)) | 5 (Herbicidal rate of 90% or more (almost completely withered)) | 0 (Herbicidal rate of 5% or less (almost no effect)) | 4 (Herbicidal rate of 70% or more and less than 90%) |  |
| COc1ccccc1-c1sc2cc(OC3CCCC3)ccc2c1-c1c(O)c(C)nn(C)c1=O [3-109] | 5 (Herbicidal rate of 90% or more (almost completely withered)) | 4 (Herbicidal rate of 70% or more and less than 90%) | 2 (Herbicidal rate of 20% or more and less than 40%) | 4 (Herbicidal rate of 70% or more and less than 90%) | 4 (Herbicidal rate of 70% or more and less than 90%) | 5 (Herbicidal rate of 90% or more (almost completely withered)) | 3 (Herbicidal rate of 40% or more and less than 70%) | 4 (Herbicidal rate of 70% or more and less than 90%) | 5 (Herbicidal rate of 90% or more (almost completely withered)) | 5 (Herbicidal rate of 90% or more (almost completely withered)) | 3 (Herbicidal rate of 40% or more and less than 70%) | 5 (Herbicidal rate of 90% or more (almost completely withered)) | 0 (Herbicidal rate of 5% or less (almost no effect)) | 5 (Herbicidal rate of 90% or more (almost completely withered)) | 5 (Herbicidal rate of 90% or more (almost completely withered)) | 2 (Herbicidal rate of 20% or more and less than 40%) |  |
| CCCC(=O)Oc1c(C)nn(C)c(=O)c1-c1c(-c2ccc(F)cc2OCC)sc2cc(Cl)ccc12 [3-046] | 0 (Herbicidal rate of 5% or less (almost no effect)) | 5 (Herbicidal rate of 90% or more (almost completely withered)) | 1 (Herbicidal rate of 5% or more and less than 20%) | 2 (Herbicidal rate of 20% or more and less than 40%) | 4 (Herbicidal rate of 70% or more and less than 90%) | 3 (Herbicidal rate of 40% or more and less than 70%) | 3 (Herbicidal rate of 40% or more and less than 70%) | 5 (Herbicidal rate of 90% or more (almost completely withered)) | 5 (Herbicidal rate of 90% or more (almost completely withered)) | 5 (Herbicidal rate of 90% or more (almost completely withered)) | 5 (Herbicidal rate of 90% or more (almost completely withered)) | 5 (Herbicidal rate of 90% or more (almost completely withered)) | 5 (Herbicidal rate of 90% or more (almost completely withered)) | 3 (Herbicidal rate of 40% or more and less than 70%) | 1 (Herbicidal rate of 5% or more and less than 20%) | 0 (Herbicidal rate of 5% or less (almost no effect)) |  |
